The results in this text go back to the NIST ThermoML archive (doi:10.1021/je0502905).

± gives the expanded uncertainty stated by the source.

The conditions of data set [1]: Liquid; for mass density: 293.15 K, 101.33 kPa.
Data set [2] is described as follows: refractive index (Na D-line) (dimensionless). Particulars: 293.15 K; 101.33 kPa; Liquid; Standard Abbe refractometry.

Take `CCCCC(C)=O` [2-hexanone]: in data set [1], the mass density is given as 811.2 ± 0.8 kg/m3. Besides, the “vapor or sublimation pressure” value in data set [1] (359.51 K) turned out to be 26.66 ± 0.27 kPa; in data set [1] (379.52 K), 53.33 ± 0.32 kPa; in data set [1] (392.57 K), 79.99 ± 0.45 kPa; in data set [1] (400.69 K), 101.32 ± 0.53 kPa. The refractive index in data set [2] came to 1.4008 ± 0.0007.
For `CCCCCCCCC` [nonane], in data set [1], the mass density was 717.6 ± 0.7 kg/m3. Also, the “vapor or sublimation pressure” value was 26.66 ± 0.25 kPa in data set [1] (379.88 K), 53.33 ± 0.3 kPa in data set [1] (401.28 K), 79.99 ± 0.42 kPa in data set [1] (415.26 K) and 101.32 ± 0.49 kPa in data set [1] (423.97 K). In data set [2], the refractive index came to 1.4055 ± 0.0007.
For `CCCCCO` [pentan-1-ol], the mass density in data set [1] is 814.5 ± 0.8 kg/m3. For the same compound, the “vapor or sublimation pressure” value in data set [1] (375.63 K) is 26.66 ± 0.31 kPa; in data set [1] (392.7 K) it was 53.33 ± 0.37 kPa; in data set [1] (403.8 K), 79.99 ± 0.53 kPa; in data set [1] (410.79 K), 101.32 ± 0.61 kPa. For the same compound, the refractive index in data set [2] was 1.4098 ± 0.0007.

Usually mass density stands for the mass of a sample divided by its volume. In general, vapor or sublimation pressure refers to the pressure of vapour in equilibrium with the condensed phase. What is called refractive index is the speed of light in vacuum divided by its phase velocity in the sample.
